According to PMC3976273, “Three Amino Acid Residues Bind Corn Odorants to McinOBP1 in the Polyembryonic Endoparasitoid of Macrocentrus cingulum Brischke” (PLoS ONE, 2014):
Numbering of substitutions follows the chain as printed. Where “and” joins values, the source holds several entries; their conditions need not be identical. Identical values can stand only once. Entries after “also recorded” stand apart in the source; their conditions may differ. Like-named read-outs stand apart in the source and are kept apart here.

Key:
McinOBP1-wt [1] = target: T1, McinOBP1-wt (Macrocentrus cingulum, UniProt X2D9T4); assay: Competitive fluorescence binding assay, displacement of 1-NPN; details: for binding to McinOBP1-wt (in words): displacement of 1-NPN
T1 sequence (X2D9T4 entry or part of it): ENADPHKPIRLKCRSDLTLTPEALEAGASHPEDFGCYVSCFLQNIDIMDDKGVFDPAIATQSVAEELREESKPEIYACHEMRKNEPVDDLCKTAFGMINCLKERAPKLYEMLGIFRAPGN
Protocol: (§1) Fluorescence binding assays were recorded on Shimadzu fluorescence spectrophotometer (Shimadzu, Japan) with a 1 cm light path quartz cuvette; both excitation and emission silts widths were 5 nm. The probe was excited at 337 nm and emission spectra were recorded between 350 and 500 nm. […] For determining the bound ligand from the intensity values of fluorescence emission assuming that the proteins were 100% active, with a stoichiometry of 1∶1 (protein:ligand) at saturation. The GraphPad Prism 5 (GraphPad Software, Inc.) was used to estimate the K1–NPN (KD of protein complex/1-NPN) values by nonlinear regression for a unique site of binding. Scatchard plots were used to linearize the curves.

[2] = target: T2, McinOBP1-m1 (Val58 to alanine) (Macrocentrus cingulum, UniProt X2D9T4, V58A); assay: as above
T2 sequence (X2D9T4 21-140 V58A): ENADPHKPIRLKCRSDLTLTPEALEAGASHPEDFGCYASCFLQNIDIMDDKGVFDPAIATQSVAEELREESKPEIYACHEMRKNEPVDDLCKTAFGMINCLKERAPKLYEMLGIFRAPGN
Text: (§2) The three mutants of McinOBP1, m1 (mutation of amino acid, valine to alanine at 58 position), m2 (mutation of amino acid, leucine to proline at 62 position) and m3 (mutation of amino acid, glutamic to alanine at 130 position), were developed using the kit of Quick-change lightning site-directed mutagenesis (Stratagene, La Jolla, CA, USA). The McinOBP1-wt/pGEM-T Easy construct was used as a template. The primers were designed manually and mutation sites are underlined as listed below.
as §1

[3] = target: T3, McinOBP1-m2 (Leu62 to proline) (Macrocentrus cingulum, UniProt X2D9T4, L62P); assay: as above
T3 sequence (X2D9T4 21-140 L62P): T2 sequence (X2D9T4 21-140 V58A) with A38V, L42P
Text: as §2, §1

[4] = target: T4, McinOBP1-m3 (Glu130 to alanine) (Macrocentrus cingulum, UniProt X2D9T4, E130A); assay: as above
T4 sequence (X2D9T4 21-140 E130A): T2 sequence (X2D9T4 21-140 V58A) with A38V, E110A
Text: as §2, §1

McinOBP1-wt [5] = target: T1, McinOBP1-wt; assay: Fluorescence binding of the probe 1-NPN (direct titration); details: dissociation constant (KD) of 1-NPN, 2 μM protein, 50 mM Tris-HCl pH 7.4
Protocol: as §1

[6] = target: T2, McinOBP1-m1 (Val58 to alanine); assay: as above; details: 2 μM protein, pH 7.4
Text: as §2, §1

[7] = target: T3, McinOBP1-m2 (Leu62 to proline); assay: as above; details: 2 μM protein, pH 7.4
Text: as §2, §1

[8] = target: T4, McinOBP1-m3 (Glu130 to alanine); assay: as above; details: 2 μM protein, pH 7.4
Text: as §2, §1

[9] = McinOBP1-wt, pH 7.4, 2 μM 1-NPN, read-out: IC50 (given as dash)
[10] = McinOBP1-wt, pH 7.4, 2 μM 1-NPN
[11] = McinOBP1-wt, pH 7.4, calculated from IC50 and K1-NPN, read-out: KD (calculated dissociation constant)
[12] = read-out: IC50 (ligand concentration displacing 50% of the fluorescence of the McinOBP1/1-NPN complex), McinOBP1-wt, pH 7.4, 2 μM 1-NPN

How did the “binding to McinOBP1-wt (in words)” value (McinOBP1-wt [1]; McinOBP1-wt) turn out when `CCCCCCCCCC=O` [Decanal] was run?
Its value is “did not bind”.

And the “binding to McinOBP1-wt (in words)” value (McinOBP1-wt [1]; McinOBP1-wt, listed as decanal)?
Its value is “no binding affinity”.

And the IC50 (McinOBP1-wt [1]; [9])?
The IC50 was greater than 50 µM.

What does the source list for `CCCCCC/C=C/C=O` [Trans-2-Nonenal]?
IC50 (McinOBP1-wt [1]): 3.4 µM; Kd (McinOBP1-wt [1]): 2.96 µM; IC50 [2]: 13.6 µM; Kd [2]: 12.7 µM; IC50 [3]: 50.6 µM; Kd [3]: 47.2 µM; IC50 [4]: 76.7 µM; Kd ([4]; KD, McinOBP1-m3): 66.5 µM

For `CCCCC/C=C/C=O` [Trans-2-Octenal], which IC50 (McinOBP1-wt [1]; [10]) is on record?
The IC50 was 15.7 µM.

What about the Kd (McinOBP1-wt [1]; [11]) of the same molecule?
Its Kd is 13.6 µM.

How did the Kd (McinOBP1-wt [5]) turn out when `c1ccc(Nc2cccc3ccccc23)cc1` [1-NPN, N-phenyl-1-naphthylamine] was run?
The Kd was ~6.6 µM and 6.6 µM.

What about the Kd [6] of the same molecule?
Its Kd is 14.6 ± 1.07 µM.

What about the Kd [7] of the same molecule?
The Kd was 13.7 ± 0.71 µM.

What about the Kd [8] of the same molecule?
Its Kd is 6.53 ± 0.5 µM.

What does the source list for `CCCCCc1ccco1` [2-Pentylfuran]?
IC50 (McinOBP1-wt [1]; [10]): 19.1 µM; Kd (McinOBP1-wt [1]; [11]): 16.6 µM

What does the source list for `CCCCCCCCCCC=O` [Undecanal]?
binding to McinOBP1-wt (in words) (McinOBP1-wt [1]; McinOBP1-wt): did not bind; also recorded: no binding affinity; IC50 (McinOBP1-wt [1]; [9]): > 50 µM

Which results are given for `C=CC(=C)CC/C=C(\C)CCC=C(C)C` [β-Farnesene]?
Kd (McinOBP1-wt [1]; [11]): 24.8 µM; IC50 (McinOBP1-wt [1]; [12]): 28.5 µM

Which results are given for `C=CC(C)(O)CCC=C(C)C` (centres unmarked) [Linalool]?
IC50 (McinOBP1-wt [1]): 18.6 µM; Kd (McinOBP1-wt [1]): 16.2 µM

With `CC/C=C/CCOC(C)=O` [Trans-3-Hexen-1-ol-Acetate] as the molecule, how does the Kd (McinOBP1-wt [1]; [11]) read?
Its Kd is 20.7 µM.

What about the IC50 (McinOBP1-wt [1]; [12]) of the same molecule?
The IC50 was 23.9 µM.

What does the source list for `CC(=O)/C=C/C1=C(C)CCCC1(C)C` [β-Ionone]?
IC50 (McinOBP1-wt [1]): 10.3 µM; Kd (McinOBP1-wt [1]): 8.97 µM

What does the source list for `CC1=CCC2CC1C2(C)C` (stereo not drawn) [α-pinene]?
IC50 (McinOBP1-wt [1]): 17.8 µM; Kd (McinOBP1-wt [1]): 15.5 µM

Hexenal was tested. Which Kd (McinOBP1-wt [1]; [11]) did it give?
Its Kd is 16.4 µM.

And the IC50 (McinOBP1-wt [1]; [12])?
Its IC50 is 18.9 µM.

Which Kd (McinOBP1-wt [1]; [11]) does the source give for `CC/C=C\CCOC(C)=O` [cis-3-hexenyl acetate] here?
Its Kd is 10.3 ± 0.71 µM.

What does the source list for `CC(=O)/C=C/C1C(C)=CCCC1(C)C` (stereo not drawn) [α-Ionone]?
IC50 (McinOBP1-wt [1]): 12.1 µM; Kd (McinOBP1-wt [1]): 9.3 ± 0.38 µM

Which IC50 (McinOBP1-wt [1]) does the source give for `CC/C=C\CCO` [Cis-3-Hexen-1-ol] here?
Its IC50 is 4.61 µM.

And the Kd (McinOBP1-wt [1])?
Its Kd is 4 µM.

What about the IC50 [2] of the same molecule?
The IC50 was 23.6 µM.

What about the Kd [2] of the same molecule?
The Kd was 22.1 µM.

And the IC50 [3]?
Its IC50 is 26.1 µM.

And the Kd [3]?
Its Kd is 24.3 µM.

What about the IC50 [4] of the same molecule?
The IC50 was 29.5 µM.

What about the Kd ([4]; KD, McinOBP1-m3) of the same molecule?
The Kd was 25.6 µM.

Which Kd (McinOBP1-wt [1]; [11]) does the source give for `C=C1CC/C=C(\C)CC[C@@H]2[C@@H]1CC2(C)C` [Trans-Caryophelle, β- Caryophelle] here?
Its Kd is 6.53 µM.

And the IC50 (McinOBP1-wt [1]; [12])?
The IC50 was 7.51 µM.

What about the IC50 ([2]; McinOBP1-m1, read-out: IC50) of the same molecule?
Its IC50 is 70.7 µM.

What about the Kd ([2]; McinOBP1-m1, read-out: KD) of the same molecule?
Its Kd is 66.2 µM.

And the IC50 ([3]; McinOBP1-m2, read-out: IC50)?
Its IC50 is 45 µM.

What about the Kd ([3]; McinOBP1-m2, read-out: KD) of the same molecule?
The Kd was 42 µM.

And the Kd ([4]; McinOBP1-m3, listed as trans-caryophelle, read-out: KD)?
Its Kd is 41.4 ± 5.38 µM.

What about the IC50 ([4]; McinOBP1-m3, read-out: IC50) of the same molecule?
The IC50 was 47.8 µM.

What about the Kd ([4]; McinOBP1-m3, read-out: KD) of the same molecule?
The Kd was 41.4 µM.

With `C=C1CCC2CC1C2(C)C` (stereo not drawn) [β-Pinene] as the molecule, how does the IC50 (McinOBP1-wt [1]) read?
Its IC50 is 12.7 µM.

What about the Kd (McinOBP1-wt [1]) of the same molecule?
Its Kd is 10.8 µM.

`CCCCCCCCC=O` [Nonanal] was tested. Which IC50 (McinOBP1-wt [1]; [10]) did it give?
Its IC50 is 19.6 µM.

And the Kd (McinOBP1-wt [1]; [11])?
Its Kd is 17 µM.

How did the Kd (McinOBP1-wt [1]; [11]) turn out when `C=C(C)[C@H]1CC=C(C)CC1` [Limonene] was run?
Its Kd is 18.3 µM.

What about the IC50 (McinOBP1-wt [1]; [12]) of the same molecule?
Its IC50 is 21.1 µM.

Which results are given for `CCCCCCC=O` [Heptanal]?
IC50 (McinOBP1-wt [1]; [10]): 35.5 µM; Kd (McinOBP1-wt [1]; [11]): 30.9 µM

Which Kd (McinOBP1-wt [1]; [11]) does the source give for Farnsene here?
The Kd was 8.93 µM.

What about the IC50 (McinOBP1-wt [1]; [12]) of the same molecule?
Its IC50 is 10.3 µM.

How did the IC50 (McinOBP1-wt [1]) turn out when `O=Cc1ccccc1` [Benzaldehyde] was run?
The IC50 was 17.9 µM.

And the Kd (McinOBP1-wt [1])?
Its Kd is 15.6 µM.

How did the “binding to McinOBP1-wt (in words)” value (McinOBP1-wt [1]; McinOBP1-wt) turn out when `CCC(C)CCCC(C)C` (centres unmarked) [2,6 dimethyl octane] was run?
Its value is “no binding affinity”.

And the “binding to McinOBP1-wt (in words)” value (McinOBP1-wt [1]; McinOBP1-wt, listed as 2, 6 dimethyl octane)?
The value was “did not bind”.

And the IC50 (McinOBP1-wt [1]; [9])?
Its IC50 is greater than 50 µM.
